Test results published in patent US10131652B2, “Pyrimidinyloxy benzene derivatives as herbicides” (E. I. DU PONT DE NEMOURS AND COMPANY, priority 2014, dated 2018).

Legend:
Assay type in all cases: in vivo
[1] = system: giant foxtail (Setaria faberii); experiment: Test B pre-/postemergence plant response
Description: (§1) Seeds of plant species selected from bamyardgrass (Echinochloa crus-galli), kochia (Kochia scoparia), ragweed (common ragweed, Ambrosia elatior), Italian ryegrass (Lolium multiflorum), large (Lg) crabgrass (Digitaria sanguinalis), giant foxtail (Setaria faberii), momingglory (Ipomoea spp.), pigweed (Amaranthus retroflexus), velvetleaf (Abutilon theophrasti), wheat (Triticum aestivum), and corn (Zea mays) were planted into a blend of loam soil and sand and treated preemergence with a directed soil spray using test chemicals formulated in a non-phytotoxic solvent mixture which included a surfactant. At the same time, plants selected from these crop and weed species and also blackgrass (Alopecurus myosuroides), and galium (catchweed bedstraw, Galium aparine) were planted in pots containing the same blend of loam soil and sand and treated with postemergence applications of test chemicals formulated in the same manner. Plants ranged in height from 2 to 10 cm and were in the one- to two-leaf stage for the postemergence treatment. Treated plants and untreated controls were maintained in a greenhouse for approximately 10 days, after which time all treated plants were compared to untreated controls and visually evaluated for injury. Plant response ratings, summarized in Table B, are based on a 0 to 100 scale where 0 is no effect and 100 is complete control. A dash (-) response means no test result.

[2] = system: barnyardgrass (Echinochloa crus-galli); experiment: Test B pre-/postemergence plant response
Description: as §1

[3] = system: pigweed (Amaranthus retroflexus); experiment: Test B pre-/postemergence plant response
Description: as §1

[4] = system: ragweed (common ragweed, Ambrosia elatior); experiment: Test B pre-/postemergence plant response
Description: as §1

kochia (Kochia scoparia) = experiment: Test B pre-/postemergence plant response
Description: as §1

corn (Zea mays) = experiment: Test B pre-/postemergence plant response
Description: as §1

[5] = system: wheat (Triticum aestivum); experiment: Test B pre-/postemergence plant response
Description: as §1

[6] = system: Italian ryegrass (Lolium multiflorum); experiment: Test B pre-/postemergence plant response
Description: as §1

[7] = system: barnyardgrass (Echinochloa crus-galli); experiment: Test C flooded paddy test plant response; settings: Flood, 250 g ai/ha; scale of 0 to 100 where 0 is no effect and 100 is complete control; 13 to 15 days
Summary of the method: (§2)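 Two-leaf stage → flood to 3 cm → compound into water → hold depth, greenhouse 13–15 d → visual score vs controls (0 none, 100 complete control).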

rice (Oryza sativa) = experiment: Test C flooded paddy test plant response; settings: Flood, 250 g ai/ha; scale of 0 to 100 where 0 is no effect and 100 is complete control; 13 to 15 days
Summary of the method: as §2

[8] = system: ducksalad (Heteranthera limosa); experiment: Test C flooded paddy test plant response; settings: Flood, 250 g ai/ha; scale of 0 to 100 where 0 is no effect and 100 is complete control; 13 to 15 days
Summary of the method: as §2

[9] = system: small-flower umbrella sedge (Cyperus difformis); experiment: Test C flooded paddy test plant response; settings: Flood, 250 g ai/ha; scale of 0 to 100 where 0 is no effect and 100 is complete control; 13 to 15 days
Summary of the method: as §2

[10] = system: blackgrass (Alopecurus myosuroides); experiment: Test B postemergence plant response
Summary of the method: (§3)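 Values are visual control ratings (0 to 100) recorded approximately 10 days after postemergence application to greenhouse-grown plants of 2 to 10 cm, one- to two-leaf stage, each judged against untreated controls.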

[11] = system: galium (catchweed bedstraw, Galium aparine); experiment: Test B postemergence plant response
Summary of the method: as §3

[12] = 31 g ai/ha, Preemergence, 0 to 100 scale where 0 is no effect and 100 is complete control
[13] = 125 g ai/ha, postemergence, 0 to 100 scale, 0 no effect, 100 complete control
[14] = Postemergence, 31 g ai/ha, 0 to 100 scale (0 no effect, 100 complete control)
[15] = Preemergence, 125 g ai/ha, 0 to 100 scale (0 no effect, 100 complete control)
[16] = 31 g ai/ha, Postemergence, 0 to 100 scale, 0 no effect, 100 complete control
[17] = Preemergence, 125 g ai/ha, 0 to 100 scale where 0 is no effect and 100 is complete control

Compound | Plant response rating, Foxtail, Giant [1, 12] | Plant response rating, Foxtail, Giant [1, 13] | Plant response rating, Barnyardgrass [2, 12] | Plant response rating, Barnyardgrass [2, 13] | Plant response rating, Pigweed [3, 12] | Plant response rating, Pigweed [3, 13] | Plant response rating, Ragweed [4, 12] | Plant response rating, Ragweed [4, 13] | Plant response rating, Kochia (kochia (Kochia scoparia); [12]) | Plant response rating, Kochia (kochia (Kochia scoparia); [13]) | Plant response rating, Corn (corn (Zea mays); [13]) | Plant response rating, Wheat [5, 13] | Plant response rating, Ryegrass, Italian [6, 12] | Plant response rating, Ryegrass, Italian [6, 13] | Barnyardgrass plant response rating [7] | Rice plant response rating (rice (Oryza sativa)) | Ducksalad plant response rating [8] | Sedge, Umbrella plant response rating [9] | Plant response rating, Blackgrass [10, 13] | Plant response rating, Galium [11, 13] | further results
N#Cc1cc(-c2c(F)cccc2Oc2ncc(Cl)cn2)no1 [Compound 222] | 0 | 0 | 0 | 0 | 20 | 100 | 0 | 20 | 0 | 30 | 30 | 20 | 0 | 0 | 0 | 0 | 30 | 0 | 10 | 90 | Plant response rating, Foxtail, Giant [1, 14]: 0; Foxtail, Giant plant response rating [1, 15]: 0; Plant response rating, Barnyardgrass [2, 14]: 0; Barnyardgrass plant response rating [2, 15]: 0; Plant response rating, Pigweed [3, 14]: 30; Pigweed plant response rating [3, 15]: 90; Plant response rating, Ragweed [4, 14]: 0; Ragweed plant response rating [4, 15]: 0; Plant response rating, Kochia (kochia (Kochia scoparia); [14]): 20; Kochia plant response rating (kochia (Kochia scoparia); [15]): 0; Plant response rating, Corn (corn (Zea mays); [14]): 0; Plant response rating, Wheat [5, 14]: 0; Plant response rating, Ryegrass, Italian [6, 14]: 0; Ryegrass, Italian plant response rating [6, 15]: 0; Plant response rating, Blackgrass [10, 14]: 0; Plant response rating, Galium [11, 14]: 30
FC(F)(F)COCc1cc(-c2ccccc2Oc2ncc(Br)cn2)on1 [Compound 129] | 0 | 10 | 0 | 10 | 0 | 30 | 0 | 0 | 0 | 10 | 10 | 0 | 0 | 0 | 0 | 0 | 0 | 0 | 0 | 10 | Plant response rating, Foxtail, Giant [1, 16]: 0; Foxtail, Giant plant response rating [1, 15]: 0; Plant response rating, Barnyardgrass [2, 16]: 0; Barnyardgrass plant response rating [2, 15]: 0; Pigweed plant response rating [3, 15]: 0; Ragweed plant response rating [4, 15]: 0; Kochia plant response rating (kochia (Kochia scoparia); [15]): 0; Plant response rating, Corn (corn (Zea mays); [16]): 0; Ryegrass, Italian plant response rating [6, 15]: 0; Plant response rating, Blackgrass [10, 16]: 0
Cn1ncnc1-c1ccccc1Oc1ncc(Cl)cn1 [Compound 117] | 0 | 0 | 0 | 0 | 0 | 0 | 0 | 0 | 0 | 0 | 0 | 0 | 0 | 0 | 0 | 0 | 0 | 0 | 0 | 0 | Plant response rating, Foxtail, Giant [1, 16]: 0; Plant response rating, Foxtail, Giant [1, 17]: 0; Plant response rating, Barnyardgrass [2, 16]: 0; Plant response rating, Barnyardgrass [2, 17]: 0; Plant response rating, Pigweed [3, 16]: 0; Plant response rating, Ragweed [4, 16]: 0; Plant response rating, Kochia (kochia (Kochia scoparia); [16]): 0; Plant response rating, Kochia (kochia (Kochia scoparia); [17]): 0; Plant response rating, Corn (corn (Zea mays); [16]): 0; Plant response rating, Wheat [5, 16]: 0; Plant response rating, Ryegrass, Italian [6, 16]: 0; Plant response rating, Blackgrass [10, 16]: 0; Plant response rating, Galium [11, 16]: 0
Fc1cccc(Oc2ncc(Cl)cn2)c1-c1cnccn1 [Compound 165] | 0 | 20 | 0 | 20 | 30 | 50 | 20 | 60 | 0 | 40 | 0 | 0 | 0 | 0 | 0 | 0 | 0 | 0 | 30 | 40 | Plant response rating, Foxtail, Giant [1, 14]: 10; Foxtail, Giant plant response rating [1, 15]: 10; Plant response rating, Barnyardgrass [2, 14]: 0; Barnyardgrass plant response rating [2, 15]: 10; Plant response rating, Pigweed [3, 14]: 30; Pigweed plant response rating [3, 15]: 80; Plant response rating, Ragweed [4, 14]: 30; Ragweed plant response rating [4, 15]: 50; Plant response rating, Kochia (kochia (Kochia scoparia); [14]): 20; Kochia plant response rating (kochia (Kochia scoparia); [15]): 60; Plant response rating, Corn (corn (Zea mays); [14]): 0; Plant response rating, Wheat [5, 14]: 0; Plant response rating, Ryegrass, Italian [6, 14]: 0; Ryegrass, Italian plant response rating [6, 15]: 0; Plant response rating, Blackgrass [10, 14]: 20; Plant response rating, Galium [11, 14]: 20
